From patent publication US20250188171A1, “COMBINATION THERAPY INCLUDING ANTIBODIES THAT BIND EGFR AND CMET” (MERUS N.V., priority 2022, published 2025)

Experiments:
[1] = target: cMET (Homo sapiens, UniProt P08581); details: reported; cited from earlier work
[2] = system: HCC827-ER1 tumor cells; assay: HCC827-ER1 NSCLC CDX model with EGFR exon 19 deletion
Excerpt: The model HCC827-ER1 was generated in BALB/c nude mice. It carries an EGFR mutation in exon 19 (deletion E746-A750), and has amplified c-MET copy number and Axl expression compared to the wild type HCC827 cell line.
Each mouse was inoculated in the right front flank region with HCC827-ER1 tumor cells mixed with Matrigel for tumor development. […] The date of randomization was denoted as day 0 and dosing was initiated from day 0. […] The dose-free observation period was included to compare duration of response and relapse (tumor re-growth) after treatment end. Mice with tumor volume exceeding 1500 mm^3, or with body weight loss over 20% relative to the weight at the first day of treatment were terminated during the treatment period. Antibody was administered twice a week intra peritoneally (i.p.) at 25 mg/kg dose over a period of 21 days, with a total of 7 doses. […] Eight mice in group 1 were treated with vehicle control (placebo buffer). Tumor volume (mm^3) was measured twice per week in 2 dimensions using a caliper. The animals were checked for any effects of tumor growth and treatments on behavior such as mobility, food and water consumption, body weight gain/loss, eye/hair matting and any other abnormalities. Body weights were measured twice per week after randomization.

[3] = system: LXFE2478 NSCLC PDX tumor model
Description: This model carries mutation EGFRex20ins (M766_A767insASV).
Insertion of 9 nucleotides in exon 20 in this model affects the EGFR tyrosine kinase domain (M766X) and confers resistance to small molecule EGFR inhibitors. This model carries no mutations in B-RAF, H-/N- and KRAS and PTEN genes (whole exome sequencing was done for both patient tumor and tumor xenograft with matching results).
Antitumor efficacy of all groups was assessed using the control vehicle/placebo buffer group as a reference. Tumor growth inhibition was determined by the comparison of RTVs of the test groups with the control group and is expressed as minimum T/C value in percent. For the evaluation of the statistical significance of antitumor efficacy, the non-parametric Kruskal-Wallis test followed by Dunn's method for multiple comparisons was performed. […] Statistical analysis was only carried out if at least 50% of the initially randomized animals still remained in the relevant group. Comparisons between test groups were carried out for the same days. All p-values <0.05 were considered statistically significant. Statistical calculations were performed using GraphPad Prism bioanalytic software (version 9.10 for Microsoft Windows, GraphPad Software, San Diego, California, USA.
Tumors were harvested from the donor PDX mice, cut into fragments (LXFE2478: 3-4 mm edge length) and inoculated into recipient nude mice subcutaneously (SC) in the flank. When the tumor implants reached approximately 80-200 mm3 in a sufficient number of animals, mice were assigned to groups. Randomization was performed based on “stratified distribution” method. Treatment started on the same day as randomization (day 0).
Treatment started the same day as enrollment (day 0). Mice were terminated during the observation period if the tumor volume was >1000 mm3.
Antibody was administered once a week intra peritoneally (IP) at 5 mg/kg and 25 mg/kg dose over a period of 5 weeks.
After randomization, animals were routinely monitored for morbidity and mortality, they were weighted twice a week, and tumor volumes (TV) were determined twice a week with a caliper. Relative body weight (RBW) was calculated by dividing the absolute weight or volume on a certain day by the absolute weight at day 0 multiplied by 100. Relative tumor volumes (RTV) were calculated by dividing the absolute individual tumor volume on a certain day by the absolute tumor volume at day 0 multiplied by 100.
For mice that lost >10% body weight, weight was measured daily, and animals had facilitated access to feed and water, and access to DietGel.
A dose-free observation period was included to compare duration of response and relapse (tumor re-growth) after treatment end. […]

[4] = system: cMET and EGFR; details: Moores et al. (2016); cited from earlier work
[5] = target: mouse EGFR (Mus musculus, UniProt Q01279); assay: Binding to mouse EGFR; details: in words

cMET, sequence (P08581 25-1390): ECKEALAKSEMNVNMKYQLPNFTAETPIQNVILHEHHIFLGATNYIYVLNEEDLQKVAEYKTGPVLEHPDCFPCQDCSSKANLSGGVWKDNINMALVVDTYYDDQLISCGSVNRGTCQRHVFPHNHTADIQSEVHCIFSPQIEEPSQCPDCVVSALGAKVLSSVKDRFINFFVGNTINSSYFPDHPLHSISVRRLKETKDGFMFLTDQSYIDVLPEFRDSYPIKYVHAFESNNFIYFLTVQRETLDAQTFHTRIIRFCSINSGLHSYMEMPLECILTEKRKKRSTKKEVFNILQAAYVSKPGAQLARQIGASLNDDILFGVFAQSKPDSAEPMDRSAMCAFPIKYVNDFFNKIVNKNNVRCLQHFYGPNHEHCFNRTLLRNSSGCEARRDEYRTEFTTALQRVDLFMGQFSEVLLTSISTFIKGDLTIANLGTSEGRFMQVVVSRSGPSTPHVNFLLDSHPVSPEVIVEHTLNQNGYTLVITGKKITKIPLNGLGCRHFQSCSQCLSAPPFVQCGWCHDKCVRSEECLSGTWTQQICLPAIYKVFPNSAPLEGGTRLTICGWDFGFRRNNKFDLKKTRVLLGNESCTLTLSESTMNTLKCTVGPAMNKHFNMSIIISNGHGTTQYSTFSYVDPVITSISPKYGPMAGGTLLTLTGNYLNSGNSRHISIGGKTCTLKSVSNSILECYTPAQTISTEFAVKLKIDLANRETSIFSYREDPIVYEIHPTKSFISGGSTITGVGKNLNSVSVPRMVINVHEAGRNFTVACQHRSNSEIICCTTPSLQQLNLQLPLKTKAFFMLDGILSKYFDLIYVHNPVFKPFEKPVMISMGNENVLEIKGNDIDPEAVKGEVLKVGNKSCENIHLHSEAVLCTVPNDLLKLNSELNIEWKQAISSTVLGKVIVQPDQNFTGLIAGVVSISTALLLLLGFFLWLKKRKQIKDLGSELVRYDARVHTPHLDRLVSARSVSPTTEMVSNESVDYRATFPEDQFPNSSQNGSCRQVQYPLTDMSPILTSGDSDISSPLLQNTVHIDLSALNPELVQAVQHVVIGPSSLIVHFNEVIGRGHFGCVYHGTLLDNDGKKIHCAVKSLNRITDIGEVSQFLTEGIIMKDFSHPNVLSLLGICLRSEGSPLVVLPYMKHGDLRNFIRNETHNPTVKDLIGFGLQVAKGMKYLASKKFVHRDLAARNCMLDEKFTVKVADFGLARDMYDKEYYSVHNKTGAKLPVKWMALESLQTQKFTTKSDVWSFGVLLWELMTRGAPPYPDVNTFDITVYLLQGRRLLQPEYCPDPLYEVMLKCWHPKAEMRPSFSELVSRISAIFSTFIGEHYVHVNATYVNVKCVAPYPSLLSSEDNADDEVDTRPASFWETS

5D5: reference anti-cMET antibody, Sema Domain, HGF block
MOA [1]: HGF block

C=CC(=O)Nc1cc(Nc2nccc(-c3cn(C)c4ccccc34)n2)c(OC)cc1N(C)CCN(C)C [Osimertinib]
adverse events ([2]; 25 mg/kg): tumor scabbing or tumor ulceration in some mice
effect on tumor volume ([2]; mouse, in vivo): tumor regression
anti-tumor efficacy, monotherapy ([3]; 5 and 25 mg/kg): dose-dependent anti-tumor efficacy
body weight loss ([3]; Osimertinib 25 mg/kg PO QD): > 10%
sensitivity of the model to treatment ([3]; at 5 mg/kg): reduced sensitivity
xenograft progression to 750 mm3, mice ([3]; mouse, in vivo): 6/9

JNJ-61186372: bispecific cMET×EGFR antibody produced by controlled Fab-arm exchange (Moores et al 2016)
affinity imbalance, greater affinity for cMET than EGFR [4]: approximately 40 ×

zalutumumab: EGFR monoclonal antibody in clinical development
binding to mouse EGFR [5]: do not
